Literature values in paper PMC4136950 (Journal of peptide science : an official publication of the …, 2010).

Tests used:
[1] = target: NR2D NMDA receptor subtype (co-expressed with NR1-2b) (Rattus norvegicus, UniProt P35439+Q62645); settings: read-out: Approximate IC50, NR2D
[2] = target: NR2C NMDA receptor subtype (co-expressed with NR1-2b) (Rattus norvegicus, UniProt P35439+Q00961); settings: read-out: Approximate IC50, NR2C
[3] = target: NR2B NMDA receptor subtype (co-expressed with NR1-2b) (Rattus norvegicus, UniProt P35439+Q00960); settings: read-out: Approximate IC50, NR2B
[4] = target: NR2A NMDA receptor subtype (co-expressed with NR1-2b) (Rattus norvegicus, UniProt P35439+Q00959); settings: read-out: Approximate IC50, NR2A
[5] = tested on: NMDA receptor subtypes NR2(A-D)

NR2B NMDA receptor subtype (co-expressed with NR1-2b), sequence (Q00960 27-1482, other chains not shown): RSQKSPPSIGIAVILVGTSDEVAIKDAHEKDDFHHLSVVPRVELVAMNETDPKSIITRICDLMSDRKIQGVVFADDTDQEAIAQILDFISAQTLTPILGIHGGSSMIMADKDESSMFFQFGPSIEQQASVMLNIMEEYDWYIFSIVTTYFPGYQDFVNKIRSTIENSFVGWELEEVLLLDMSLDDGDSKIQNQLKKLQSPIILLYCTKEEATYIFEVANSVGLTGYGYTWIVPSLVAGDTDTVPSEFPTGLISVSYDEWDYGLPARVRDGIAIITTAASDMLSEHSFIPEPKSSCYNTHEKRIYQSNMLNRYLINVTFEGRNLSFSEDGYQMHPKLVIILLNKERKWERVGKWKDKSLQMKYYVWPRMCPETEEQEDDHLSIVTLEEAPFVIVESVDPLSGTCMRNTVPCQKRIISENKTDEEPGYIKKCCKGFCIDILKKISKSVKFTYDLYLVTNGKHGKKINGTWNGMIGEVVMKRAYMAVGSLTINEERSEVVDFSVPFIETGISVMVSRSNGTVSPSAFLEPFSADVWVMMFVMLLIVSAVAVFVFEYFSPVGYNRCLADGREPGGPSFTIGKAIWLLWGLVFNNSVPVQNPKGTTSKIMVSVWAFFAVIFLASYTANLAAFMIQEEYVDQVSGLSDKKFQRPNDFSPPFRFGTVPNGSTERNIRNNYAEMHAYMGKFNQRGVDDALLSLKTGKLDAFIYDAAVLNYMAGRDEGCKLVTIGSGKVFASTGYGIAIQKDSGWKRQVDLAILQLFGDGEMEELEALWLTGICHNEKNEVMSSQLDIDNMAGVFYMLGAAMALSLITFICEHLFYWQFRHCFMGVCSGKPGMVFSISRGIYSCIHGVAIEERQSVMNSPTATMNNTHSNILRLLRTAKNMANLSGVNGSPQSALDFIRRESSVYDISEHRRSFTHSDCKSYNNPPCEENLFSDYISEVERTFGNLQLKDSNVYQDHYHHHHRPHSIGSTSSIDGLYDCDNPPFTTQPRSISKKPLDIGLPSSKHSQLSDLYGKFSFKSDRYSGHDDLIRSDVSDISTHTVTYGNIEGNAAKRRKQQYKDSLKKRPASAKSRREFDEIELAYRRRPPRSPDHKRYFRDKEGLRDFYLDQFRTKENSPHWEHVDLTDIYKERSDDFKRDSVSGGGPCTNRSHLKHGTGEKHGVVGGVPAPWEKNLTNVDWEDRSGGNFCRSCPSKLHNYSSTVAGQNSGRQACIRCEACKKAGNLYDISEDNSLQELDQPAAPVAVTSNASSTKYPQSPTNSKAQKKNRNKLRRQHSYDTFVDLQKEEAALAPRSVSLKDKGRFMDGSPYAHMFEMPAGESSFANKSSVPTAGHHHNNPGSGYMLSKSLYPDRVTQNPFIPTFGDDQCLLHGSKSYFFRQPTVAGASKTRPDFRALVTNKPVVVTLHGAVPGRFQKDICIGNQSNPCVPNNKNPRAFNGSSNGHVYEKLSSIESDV
NR2C NMDA receptor subtype (co-expressed with NR1-2b), sequence (Q00961 20-1237, other chains not shown): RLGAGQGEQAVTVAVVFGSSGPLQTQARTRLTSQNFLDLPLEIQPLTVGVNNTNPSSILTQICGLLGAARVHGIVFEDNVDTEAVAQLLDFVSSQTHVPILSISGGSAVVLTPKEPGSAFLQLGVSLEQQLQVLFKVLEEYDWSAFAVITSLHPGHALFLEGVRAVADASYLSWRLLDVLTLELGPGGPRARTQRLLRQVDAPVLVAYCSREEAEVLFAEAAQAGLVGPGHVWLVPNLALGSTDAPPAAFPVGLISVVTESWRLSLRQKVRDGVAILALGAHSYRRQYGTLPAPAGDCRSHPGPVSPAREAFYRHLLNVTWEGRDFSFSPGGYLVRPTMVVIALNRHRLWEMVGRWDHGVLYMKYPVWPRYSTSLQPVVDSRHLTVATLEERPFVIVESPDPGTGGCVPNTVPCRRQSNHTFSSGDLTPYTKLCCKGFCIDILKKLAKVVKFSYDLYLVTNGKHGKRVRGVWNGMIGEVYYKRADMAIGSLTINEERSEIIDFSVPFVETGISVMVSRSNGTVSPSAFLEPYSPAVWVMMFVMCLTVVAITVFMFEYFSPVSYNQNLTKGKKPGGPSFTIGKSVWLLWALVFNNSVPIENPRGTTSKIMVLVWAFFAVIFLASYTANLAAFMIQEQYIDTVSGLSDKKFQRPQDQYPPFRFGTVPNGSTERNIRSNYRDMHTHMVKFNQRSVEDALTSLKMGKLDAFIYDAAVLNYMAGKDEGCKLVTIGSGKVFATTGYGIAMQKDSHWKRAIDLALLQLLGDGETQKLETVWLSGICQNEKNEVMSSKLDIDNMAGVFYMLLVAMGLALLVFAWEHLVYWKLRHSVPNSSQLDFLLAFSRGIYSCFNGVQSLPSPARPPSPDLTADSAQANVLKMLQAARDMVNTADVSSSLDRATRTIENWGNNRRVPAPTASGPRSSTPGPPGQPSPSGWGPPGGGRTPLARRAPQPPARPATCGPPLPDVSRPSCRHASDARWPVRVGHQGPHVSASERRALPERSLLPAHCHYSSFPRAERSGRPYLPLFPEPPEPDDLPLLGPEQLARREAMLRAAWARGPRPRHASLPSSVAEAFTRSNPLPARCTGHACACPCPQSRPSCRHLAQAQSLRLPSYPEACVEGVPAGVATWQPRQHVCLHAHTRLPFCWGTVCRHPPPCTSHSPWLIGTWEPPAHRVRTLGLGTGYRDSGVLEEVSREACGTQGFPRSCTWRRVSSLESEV
NR2A NMDA receptor subtype (co-expressed with NR1-2b), sequence (Q00959 23-1464, other chains not shown): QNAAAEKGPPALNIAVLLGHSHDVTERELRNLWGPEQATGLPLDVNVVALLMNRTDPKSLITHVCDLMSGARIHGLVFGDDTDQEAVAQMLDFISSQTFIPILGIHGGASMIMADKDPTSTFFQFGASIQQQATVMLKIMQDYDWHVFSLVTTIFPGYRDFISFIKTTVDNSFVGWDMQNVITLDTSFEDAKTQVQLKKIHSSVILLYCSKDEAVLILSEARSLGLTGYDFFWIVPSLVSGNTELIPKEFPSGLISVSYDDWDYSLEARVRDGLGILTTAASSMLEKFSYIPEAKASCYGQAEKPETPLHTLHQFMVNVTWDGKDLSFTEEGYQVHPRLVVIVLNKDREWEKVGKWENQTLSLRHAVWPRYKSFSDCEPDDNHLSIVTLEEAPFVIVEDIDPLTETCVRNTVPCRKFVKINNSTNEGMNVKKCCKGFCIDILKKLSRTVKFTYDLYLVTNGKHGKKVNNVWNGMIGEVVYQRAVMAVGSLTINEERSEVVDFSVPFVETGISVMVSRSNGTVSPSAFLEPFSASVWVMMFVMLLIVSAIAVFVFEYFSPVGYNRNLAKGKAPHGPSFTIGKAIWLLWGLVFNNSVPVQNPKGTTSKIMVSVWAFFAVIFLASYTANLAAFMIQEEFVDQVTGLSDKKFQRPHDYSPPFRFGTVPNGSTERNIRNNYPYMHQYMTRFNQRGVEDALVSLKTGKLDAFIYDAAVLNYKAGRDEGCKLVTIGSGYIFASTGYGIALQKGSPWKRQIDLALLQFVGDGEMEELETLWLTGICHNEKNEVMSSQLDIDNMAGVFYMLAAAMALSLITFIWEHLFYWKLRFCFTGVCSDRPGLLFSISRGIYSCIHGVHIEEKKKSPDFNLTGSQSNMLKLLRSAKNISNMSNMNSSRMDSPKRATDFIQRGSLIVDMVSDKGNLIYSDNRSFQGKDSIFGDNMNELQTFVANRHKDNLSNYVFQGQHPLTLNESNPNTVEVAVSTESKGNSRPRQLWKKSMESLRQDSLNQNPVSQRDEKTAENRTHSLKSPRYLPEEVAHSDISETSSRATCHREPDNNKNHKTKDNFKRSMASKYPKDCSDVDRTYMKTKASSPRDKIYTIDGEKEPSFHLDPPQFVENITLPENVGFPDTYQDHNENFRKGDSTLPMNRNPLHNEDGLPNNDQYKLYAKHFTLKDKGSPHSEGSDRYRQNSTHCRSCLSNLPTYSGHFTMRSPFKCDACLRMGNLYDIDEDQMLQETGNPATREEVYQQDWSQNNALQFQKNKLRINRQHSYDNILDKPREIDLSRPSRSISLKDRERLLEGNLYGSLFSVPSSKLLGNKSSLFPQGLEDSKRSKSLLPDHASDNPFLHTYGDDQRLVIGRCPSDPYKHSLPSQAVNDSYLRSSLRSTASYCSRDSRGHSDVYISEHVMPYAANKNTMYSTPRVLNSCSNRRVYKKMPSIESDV

Which IC50 [1] does the source give for GDγγ YSK FIγ RERγ AGR LDLSKFP^^ [ConBr] here?
Its IC50 is 310 nM.

And the IC50 [2]?
The IC50 was 4.9 µM.

What about the IC50 [3] of the same substance?
The IC50 was 140 nM.

And the IC50 [4]?
The IC50 was 680 nM.

And the “antagonism of NMDA receptor subtypes” value [5]?
The value was “known antagonist of the NR2B and NR2D NMDA receptor subtypes”.
